Consider four molecules from patent US12595269B2, “Morpholine-like monoamine releasers” (Solvonis Therapeutics Ireland Holdings Limited, priority 2022, dated 2026).

Data set [1] has as its target T1, human P-glycoprotein (MDR1) (Homo sapiens, UniProt P08183).
T1 construct: expressed in transfected cells; host or cells: MDCKII (canine kidney)
As to the kind of experiment: P-gp substrate assessment, efflux ratio in MDCKII-MDR1 cells. The settings on record: dog, MDCK-MDR1, pH 7.4; efflux ratio; P-gp substrate if ratio >2 and reduced by inhibitor; read-out: B/A ratio in MDCKII-MDR1 cells. Format: in vitro ADME. The protocol:
(§1) Methods and Procedure: This study was conducted in compliance with previously described procedures to assure data integrity and adherence to GLP regulations. The experiments described herein were designed to evaluate the apparent permeability (Papp) of test compounds at pH 7.4. Additionally, the MDCKII-MDR1 cell line (Madin-Darby Canine Kidney clone II cell line heterologously expressing the human P-glycoprotein transporter) and mock cell line MDCKII were used to determine whether a compound acted as a P-gp substrate, in the absence and in the presence of the potent P-gp inhibitor. Test control items (digoxin, metoprolol, and atenolol) and control P-gp inhibitor (GF120918) stock solution were prepared in DMSO. Bidirectional assays (Apical to Basolateral [AB] and Basolateral to Apical [BA]) were run, in both the absence and presence of P-gp inhibitor GF120918 in MDCKII-MDR1 and mock cell line MDCKII, using as transport buffer HBSSH at a pH of 7.4 (n=3).
(§2) Compounds were tested at a single concentration (i.e. at 3 or 10 μM) at one time point (i.e. 60 min). Alternative concentrations or time-points may also be investigated. As reference compounds, digoxin (P-gp substrate), atenolol (low permeable compound) and metoprolol (high permeable compound) were included at a single concentration (e.g., 10 or 25 μM) and at single time point (e.g., 60 min). Digoxin transport was evaluated in two directions (apical-to-basolateral [AB] and basolateral-to-apical [BA]) in the absence and presence of GF120918 or in mock cells, MDCKII (n=3). Atenolol and metoprolol were only tested in the AB direction in absence of GF120918 or in mock cells, MDCKII (n=3). The integrity of the cell monolayer was evaluated after the permeability experiment using the paracellular permeability marker Lucifer yellow (LY) in the apical to basolateral direction in each well.
(§3) MDCKII or MDCKII-MDRI cells cultivated using DMEM (high glucose, GlutaMAX™ supplemented with pyruvate, 10% FBS HI and Pen/Strep) and seeded onto microporous PET (Polyethylene Terephthalate) membranes in HTS 96-Multiwell Insert plates at density of ˜175,000-245,000 cells/cm^2 (25000-35000 cells/well; 50 μL/well) in DMEM medium and incubated for 3-4 days at 37° C.-5% CO2. Medium was changed a day before the experiment.
(§4) Stock solutions of test items were prepared in DMSO at a concentration of 5 or 10 mM and stored at −20° C. until use. The potent P-gp inhibitor, GF120918 (stock solution 10 mM) and the reference controls digoxin, atenolol, metoprolol (stock solutions 3 or 10 mM) were prepared in DMSO and stored at −20° C. until use.
(§5) Donor working solutions of test items and reference controls will be prepared at a concentration of 10 or 25 μM, diluting the stock solutions in HBSSH. Receiver working solutions contained transport buffer only. All working solutions were prepared such that the final concentration of DMSO was <1% (v/v). A donor working solution containing LY was also prepared in transport buffer at 100 µM.
(§6) MDCKII and MDCKII-MDR1 cells were preincubated (37° C., 15 to 30 minutes) in receiver working solutions containing transport buffer on apical (A) and basolateral (B) sides. Following pre-incubation, test items and control items (digoxin) transport were measured in two directions (apical to basolateral [AB]) and basolateral to apical [BA]), and these directions were performed in triplicate sets of wells, in both the absence and presence of […] GF120918 or mock MDCKII cells. For [AB] directional transport, 75 μL of donor working solution was added to the A (apical) compartment and 235 μL of receiver working solution was added to the B (basolateral) compartment. For [BA] directional transport, 235 μL donor working solution with test items or reference controls was added to the B compartment and 75 μL receiver working solution was added to the A compartment. Transport of permeability reference controls, atenolol and metoprolol, were measured in one direction (apical to basolateral [AB]) (n=3). […]

The target of data set [2] is T2, human P-glycoprotein transporter (Homo sapiens, UniProt P08183).
T2 construct: expressed in transfected cells; host or cells: MDCKII (canine kidney)
The data set is described as above. Format: in vitro ADME. The settings on record: P-gp substrate classification, MDCKII-MDR1 cells. The protocol:
as §1, §2, §3, §4, §5, §6

Structures are written as SMILES. Entries after “also recorded” stand apart in the source; their conditions may differ.

T2 sequence (P08183 whole entry): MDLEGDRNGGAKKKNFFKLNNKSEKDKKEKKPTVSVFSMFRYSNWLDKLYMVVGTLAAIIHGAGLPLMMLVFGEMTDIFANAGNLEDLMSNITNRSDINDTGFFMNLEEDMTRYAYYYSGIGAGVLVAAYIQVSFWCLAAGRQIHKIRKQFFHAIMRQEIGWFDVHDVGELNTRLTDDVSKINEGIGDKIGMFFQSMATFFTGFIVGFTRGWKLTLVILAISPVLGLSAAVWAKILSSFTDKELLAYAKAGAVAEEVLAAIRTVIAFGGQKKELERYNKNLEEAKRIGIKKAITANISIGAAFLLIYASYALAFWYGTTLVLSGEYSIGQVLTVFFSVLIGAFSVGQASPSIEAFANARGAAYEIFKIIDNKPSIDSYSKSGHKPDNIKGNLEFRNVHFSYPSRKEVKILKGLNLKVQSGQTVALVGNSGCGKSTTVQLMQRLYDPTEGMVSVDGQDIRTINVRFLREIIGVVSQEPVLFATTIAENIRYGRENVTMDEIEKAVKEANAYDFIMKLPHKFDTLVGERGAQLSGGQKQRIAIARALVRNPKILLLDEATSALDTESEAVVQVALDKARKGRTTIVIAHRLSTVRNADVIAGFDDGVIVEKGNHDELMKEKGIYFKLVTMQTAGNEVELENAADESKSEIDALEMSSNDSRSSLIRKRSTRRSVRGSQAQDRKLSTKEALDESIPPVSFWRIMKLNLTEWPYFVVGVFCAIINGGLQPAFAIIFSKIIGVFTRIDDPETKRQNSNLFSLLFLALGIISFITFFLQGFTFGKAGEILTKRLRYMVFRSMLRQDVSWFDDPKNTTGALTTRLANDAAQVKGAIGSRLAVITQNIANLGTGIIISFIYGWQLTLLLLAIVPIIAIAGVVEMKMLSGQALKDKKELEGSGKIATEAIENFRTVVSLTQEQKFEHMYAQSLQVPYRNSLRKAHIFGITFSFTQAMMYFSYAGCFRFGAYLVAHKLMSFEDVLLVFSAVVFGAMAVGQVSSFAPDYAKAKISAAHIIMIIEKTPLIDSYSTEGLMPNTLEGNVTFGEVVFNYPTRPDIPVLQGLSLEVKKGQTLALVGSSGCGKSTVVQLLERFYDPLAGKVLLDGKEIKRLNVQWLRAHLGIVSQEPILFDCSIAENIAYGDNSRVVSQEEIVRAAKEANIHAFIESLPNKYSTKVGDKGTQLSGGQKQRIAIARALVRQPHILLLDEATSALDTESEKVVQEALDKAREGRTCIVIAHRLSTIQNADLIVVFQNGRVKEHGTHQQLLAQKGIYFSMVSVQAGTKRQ
T1 sequence (P08183 whole entry): as above

Take `CNC(C)Cc1ccc2c(c1)OCO2` (centres unmarked) [MDMA, reference compound]: the efflux ratio at 60 min in data set [1] was found to be 1.5. In addition, the “Substrate Classification” value in data set [2] is listed as “not a P-gp substrate”.
For `Clc1ccc([C@]23CN[C@H](CO2)C3)cc1Cl` (single isomer, unassigned) [516A], the efflux ratio at 60 min in data set [1] was found to be 0.73. Further, the “Substrate Classification” value in data set [2] is reported as “pGP-NO”.
The corresponding values for `Clc1ccc([C@@]23CN[C@@H](CO2)C3)cc1Cl` (single isomer, unassigned) [518A] are 0.7 and “not determined to be a substrate for P-gp; also recorded: pGP-NO”.
In the case of `Clc1ccc(C23CNC(CO2)C3)cc1Cl` (centres unmarked) [522A, 1-(3,4-dichlorophenyl)-2-oxa-5-azabicyclo[2.2.1]heptane], the efflux ratio at 60 min in data set [1] is 0.83. Also, the “Substrate Classification” value in data set [2] is reported as “not determined to be a substrate for P-gp; also recorded: pGP-NO”.
